Data set [1] relates to Sprague Dawley rats. Kind of data set: Clinically observable adverse effects of cationic alkyl moieties after subcutaneous bolus in rats (Table 1). The format is in vivo, rat. Particulars: tested at 3.0, 5.0 or 10 μmol/kg; for Ataxia** in n = 3: ataxia is bolus dose limiting toxicity; for Swelling and/or Discoloration in n = 3: dose at which sign was seen. The method, then: (§1) Drug administration and observation: Each rat received a subcutaneous injection of a cationic alkyl modifier (SEQ ID NO: 1-22; listed in Table 1 below) in a buffer of sterile water adjusted to a pH between 4.5-5, with an initial bolus dose of 5.0 μmol/kg and an injection volume of 1.0 mL/kg. The bolus dose level was adjusted based on observations, and animals were monitored closely for lethargy, ataxia, swelling, or discoloration during the first 4 hours post-injection and hourly thereafter. As used herein, “ataxia” means a clinical sign observed as poor muscle control that causes clumsy voluntary movements. It may cause difficulty with mobility, coordination, and eye movements. As used herein, “lethargy” means a clinical sign observed as inability or unwillingness to resume normal activity characterized by exploring and alertness. Lethargic rats are easily observed by displaying little to no activity and/or unwillingness to explore around, half closed eyes, and hunched posture. As used herein, “swelling” means a clinical sign observed as the enlargement or engorgement of body parts with blood or fluid and is associated with visible redness (discoloration). If no swelling occurred, dose level was increased to 10 μmol/kg; if swelling was present, bolus dose level was decreased to 3.0 μmol/kg. A wash-out period of 1 week was allowed between bolus doses, and animals were humanely euthanized through CO2 asphyxiation after final observation.

Assay in data set [2]: as above
Particulars: male, Sprague-Dawley, rat, in vivo, sc, tested at 3.0, 5.0 or 10 μmol/kg, lethargy is considered maximum tolerated bolus dose, read-out: Lethargy* in n = 3. The format is in vivo, rat. The method, then: as §1

Data set [3] in a line: Plasma concentration of respective natriuretic peptide by ELISA after SC bolus in CD-1 mice (pharmacokinetics, Table 3). Particulars: male, CD-1, mouse, in vivo. On the procedure:
(§2) The test articles were formulated or dissolved in sterile water for injection on the same day of administration. […] Blood samples were collected via retro-orbital bleed at 2- and 6-hours post-injection, with two bleedings per animal at two different timepoints. The samples were collected in K2EDTA tubes, processed by centrifugation (2000×g; 15 m 4 eC within 30 minutes after collection), and the resulting plasma samples were stored at −80° C. Biochemical analysis: The plasma concentration of the respective natriuretic peptide was analyzed using commercially available ELISA kits from Phoenix Pharmaceuticals (Burlingame, CA): ANP ELISA (cat #EKE-005-06), BNP ELISA (cat #EKE-011-03), and CNP ELISA (cat #EKE-012-03). […] Plasma cGMP was analyzed using a commercially available kit from Abcam (ab133052, Waltham, MA).
(In an ELISA, binding on a coated surface is turned into a signal by an enzyme label.)

In data set [4] the test system is cGMP. In words: Plasma cGMP after SC bolus of natriuretic peptides in CD-1 mice (pharmacodynamics, Table 3). The format is in vivo. As to conditions: SC bolus 1.0 mg/kg (≤0.45 μmol/kg), baseline 10 +/−8 pmol/ml, n = 3-5. On the procedure:
as §2

Like-named read-outs stand apart in the source and are kept apart here. Marks after values point to notes of the source that are not given here. Numbered stars: 1 amine (or outer) side, 2 acyl side, 3 side chain; on linkers, the order of the positions; unused ones are H or OH. Bridge positions count the residues as written; N and C are the ends. Square brackets hold non-standard residues; d marks the D form. Peptide text beside a SMILES is read from it. * marks the point of attachment. γGlu = O=C(O)[C@H](CCC(=O)[*:2])N[*:1]; Stearoyl = CCCCCCCCCCCCCCCCCC(=O)*; Palmitoyl = CCCCCCCCCCCCCCCC(=O)*; Dab = NCC[C@H](N)C(=O)O; Dap = NC[C@H](N)C(=O)O; AEEA = NCCOCCOCC(=O)O; GABA = NCCCC(=O)O Some results are limits rather than exact numbers.

For `CCCCCCCCCCCCCCCC(=O)NCCOCCOCC(=O)NCCOCCOCC(=O)NCCOCCOCC(=O)N[C@H](CCCCN)C(=O)N[C@@H](CCCCN)C(=O)O` [SEQ ID NO: 1, CH3(CH2)14(C═O)-Aeea-Aeea-Aeea-kK], in data set [1], the “Ataxia** in n = 3” value was at least 3 µmol/kg and the “Swelling and/or Discoloration in n = 3” value was at least 3 µmol/kg. For the same compound, in data set [2], the MTD was at least 3 µmol/kg.
As for `CCCCCCCCCCCCCCCCCC(=O)N[C@@H](CCCCN)C(=O)N[C@@H](CCCCN)C(=O)N[C@@H](CCCCN)C(=O)N[C@@H](CCCCN)C(=O)NCC(=O)NCC(=O)NCC(=O)O` [SEQ ID NO: 2, CH3(CH2)16(C═O)-KKKKGGG] (Stearoyl-KKKKGGG-OH; C-terminus assumed), the “Swelling and/or Discoloration in n = 3” value in data set [1] was at least 3 µmol/kg. Moreover, the MTD in data set [2] was at least 3 µmol/kg.
Turning to `CCCCCCCCCCCCCCCC(=O)NCCOCCOCC(=O)NCCOCCOCC(=O)N[C@@H](CCCCN)C(=O)N[C@@H](CCCCN)C(=O)N[C@@H](CCCCN)C(=O)N[C@@H](CCCCN)C(=O)O` [SEQ ID NO: 4, CH3(CH2)14(C═O)-Aeea-Aeea-KKKK] ({Palmitoyl-AEEA-AEEA}-KKKK-OH; C-terminus assumed), in data set [1], the “Ataxia** in n = 3” value is at least 3 µmol/kg and the “Swelling and/or Discoloration in n = 3” value was at least 3 µmol/kg. Besides, in data set [2], the MTD is at least 3 µmol/kg.
In the case of `CCCCCCCCCCCCCCCC(=O)NCCOCCOCC(=O)NCCOCCOCC(=O)N[C@@H](CCCCN)C(=O)N[C@@H](CCCCN)C(=O)O` [SEQ ID NO: 5, CH3(CH2)14(C═O)-Aeea-Aeea-KK], the “Ataxia** in n = 3” value in data set [1] is at least 5 µmol/kg. Also, the MTD in data set [2] is at least 5 µmol/kg.
On to `CCCCCCCCCCCCCCCC(=O)NCCOCCOCC(=O)NCCOCCOCC(=O)NCCOCCOCC(=O)N[C@@H](CCN)C(=O)N[C@@H](CCN)C(=O)N[C@@H](CCN)C(=O)N[C@@H](CCN)C(=O)O` [SEQ ID NO: 8, CH3(CH2)14(C═O)-Aeea-Aeea-Aeea-Dab-Dab-Dab-Dab] ({Palmitoyl-AEEA-AEEA-AEEA}-[Dab][Dab][Dab][Dab]-OH; C-terminus assumed), for which, in data set [1], the “Ataxia** in n = 3” value is over 5 µmol/kg and the “Swelling and/or Discoloration in n = 3” value is at least 3 µmol/kg. Besides, the MTD in data set [2] was at least 3 µmol/kg.
Turning to `CCCCCCCCCCCCCCCC(=O)NCCOCCOCC(=O)NCCOCCOCC(=O)NCCOCCOCC(=O)N[C@@H](CCN)C(=O)N[C@@H](CCN)C(=O)N[C@@H](CCN)C(=O)O` [SEQ ID NO: 9, CH3(CH2)14(C═O)-Aeea-Aeea-Aeea-Dab-Dab-Dab] ({Palmitoyl-AEEA-AEEA-AEEA}-[Dab]-[Dab]-[Dab]-OH; C-terminus assumed), in data set [1], the “Ataxia** in n = 3” value was over 5 µmol/kg and the “Swelling and/or Discoloration in n = 3” value is at least 3 µmol/kg. The MTD in data set [2] is over 5 µmol/kg.
For `CCCCCCCCCCCCCCCC(=O)NCCOCCOCC(=O)NCCOCCOCC(=O)NCCOCCOCC(=O)N[C@@H](CCN)C(=O)N[C@@H](CCN)C(=O)O` [SEQ ID NO: 10, CH3(CH2)14(C═O)-Aeea-Aeea-Aeea-Dab-Dab] ({Palmitoyl-AEEA-AEEA-AEEA}-[Dab]-[Dab]-OH; C-terminus assumed) the same measures were over 10 µmol/kg, at least 10 µmol/kg and over 10 µmol/kg.
The like results for `CCCCCCCCCCCCCCCC(=O)NCCCC(=O)NCCCC(=O)N[C@@H](CCN)C(=O)N[C@@H](CCN)C(=O)O` [SEQ ID NO: 11, CH3(CH2)14(C═O)-γAbu-γAbu-Dab-Dab] ({Palmitoyl-GABA-GABA}-[Dab]-[Dab]-OH; C-terminus assumed) were, in that order, over 10 µmol/kg, over 10 µmol/kg and over 10 µmol/kg.
The like results for `CCCCCCCCCCCCCCCC(=O)NCCCC(=O)NCCCC(=O)NCCCC(=O)N[C@@H](CCN)C(=O)N[C@@H](CCN)C(=O)O` [SEQ ID NO: 12, CH3(CH2)14(C═O)-γAbu-γAbu-γAbu-Dab-Dab] ({Palmitoyl-GABA-GABA-GABA}-[Dab]-[Dab]-OH; C-terminus assumed) were, in that order, over 10 µmol/kg, over 10 µmol/kg and over 10 µmol/kg.
`CCCCCCCCCCCCCCCC(=O)NCCOCCOCC(=O)NCCOCCOCC(=O)N[C@@H](CN)C(=O)N[C@@H](CCN)C(=O)O` [SEQ ID NO: 13, CH3(CH2)14(C═O)-Aeea-Aeea-Dap-Dab] ({Palmitoyl-AEEA-AEEA}-[Dap]-[Dab]-OH; C-terminus assumed): in data set [1], the “Ataxia** in n = 3” value is over 10 µmol/kg and the “Swelling and/or Discoloration in n = 3” value is over 10 µmol/kg. The MTD in data set [2] was over 10 µmol/kg.
Turning to `CCCCCCCCCCCCCCCC(=O)N[C@@H](CCC(=O)NCCOCCOCC(=O)NCCOCCOCC(=O)N[C@@H](CCN)C(=O)N[C@@H](CCN)C(=O)O)C(=O)O` [SEQ ID NO: 15, CH3(CH2)14(C═O)-γE-Aeea-Aeea-Dab-Dab] ({Palmitoyl-γGlu-AEEA-AEEA}-[Dab]-[Dab]-OH; C-terminus assumed), in data set [1], the “Ataxia** in n = 3” value is over 10 µmol/kg and the “Swelling and/or Discoloration in n = 3” value was over 10 µmol/kg. Also, the MTD in data set [2] was over 10 µmol/kg.
Consider `CCCCCCCCCCCCCCCC(=O)N[C@@H](CCC(=O)O)C(=O)NCCOCCOCC(=O)NCCOCCOCC(=O)N[C@@H](CCN)C(=O)N[C@@H](CCN)C(=O)O` [SEQ ID NO: 16, CH3(CH2)14(C═O)-E-Aeea-Aeea-Dab-Dab] (Palmitoyl-E[AEEA][AEEA][Dab][Dab]-OH; C-terminus assumed), for which, in data set [1], the “Ataxia** in n = 3” value is over 10 µmol/kg and the “Swelling and/or Discoloration in n = 3” value is over 10 µmol/kg. Also, in data set [2], the MTD was over 10 µmol/kg.
Regarding `CCCCCCCCCCCCCCCC(=O)NCCOCCOCC(=O)NCCOCCOCC(=O)NCCOCCOCC(=O)N[C@@H](CCN)C(=O)N[C@@H](CN)C(=O)O` [SEQ ID NO: 17, CH3(CH2)14(C═O)-Aeea-Aeea-Aeea-Dab-Dap] ({Palmitoyl-AEEA-AEEA-AEEA}-[Dab]-[Dap]-OH; C-terminus assumed), in data set [1], the “Ataxia** in n = 3” value is over 10 µmol/kg and the “Swelling and/or Discoloration in n = 3” value is over 10 µmol/kg. Moreover, in data set [2], the MTD was over 10 µmol/kg.
In data set [3] (sc, 1 mg/kg), `CCCCCCCCCCCCCCCC(=O)NCCOCCOCC(=O)NCCOCCOCC(=O)NCCOCCOCC(=O)N[C@@H](CN)C(=O)N[C@@H](CN)C(=O)N[C@@H](CN)C(=O)NCC(=O)N[C@@H](CC(C)C)C(=O)N[C@@H](CO)C(=O)N[C@@H](CCCCN)C(=O)NCC(=O)N[C@H]1CSSC[C@@H](C(=O)O)NC(=O)CNC(=O)[C@H](CC(C)C)NC(=O)CNC(=O)[C@H](CO)NC(=O)[C@H](CCC(N)=O)NC(=O)[C@H](CO)NC(=O)CNC(=O)[C@H]([C@@H](C)CC)NC(=O)[C@H](CCCNC(=N)N)NC(=O)[C@H](CC(=O)O)NC(=O)[C@H](CC(C)C)NC(=O)[C@H](CCCCN)NC(=O)[C@H](CC(C)C)NC(=O)CNC(=O)[C@H](Cc2ccccc2)NC1=O` [SEQ ID NO: 43] ({Palmitoyl-AEEA-AEEA-AEEA}-[Dap][Dap][Dap]GLSKGCFGLKLDRIGSQSGLGC-OH; disulfide 9-25; C-terminus assumed) came in with a level at 2 h of 29.2 ng/mL and a level at 6 h of 16.8 ng/mL. Moreover, in data set [4], the “Plasma concentration of cGMP, 2 hr” value was 114.85**** pmol/mL and the “Plasma concentration of cGMP, 6 hr” value was 93.39**** pmol/mL.
As for `CC[C@H](C)[C@@H]1NC(=O)[C@H](CCCNC(=N)N)NC(=O)[C@H](CC(=O)O)NC(=O)[C@H](CCSC)NC(=O)[C@H](CCCCN)NC(=O)[C@H](CCCNC(=N)N)NC(=O)CNC(=O)[C@H](Cc2ccccc2)NC(=O)[C@@H](NC(=O)CNC(=O)[C@H](CO)NC(=O)CNC(=O)[C@H](CCC(N)=O)NC(=O)[C@@H](NC(=O)[C@H](CCSC)NC(=O)[C@H](CCCCN)NC(=O)[C@@H]2CCCN2C(=O)[C@@H](N)CO)C(C)C)CSSC[C@@H](C(=O)N[C@@H](CCCCN)C(=O)N[C@H](C(=O)N[C@@H](CC(C)C)C(=O)N[C@@H](CCCNC(=N)N)C(=O)N[C@@H](CCCNC(=N)N)C(=O)N[C@@H](Cc2c[nH]cn2)C(=O)O)C(C)C)NC(=O)CNC(=O)[C@H](CC(C)C)NC(=O)CNC(=O)[C@H](CO)NC(=O)[C@H](CO)NC(=O)[C@H](CO)NC(=O)[C@H](CO)NC1=O` [SEQ ID NO: 48, reference compound], the level at 2 h in data set [3] (mice, SC bolus 1.0 mg/kg (≤0.45 μmol/kg), 2 hr, ELISA, n = 3-5, read-out: Plasma concentration of respective Natriuretic Peptide, ANP, BNP, or CNP, 2 hr) stood at 23.3 ng/mL. Moreover, in data set [3] (mice, SC bolus 1.0 mg/kg (≤0.45 μmol/kg), 6 hr, ELISA, n = 3-5, read-out: Plasma concentration of respective Natriuretic Peptide, ANP, BNP, or CNP, 6 hr), the level at 6 h came to 30.6 ng/mL. In data set [4], the “Plasma concentration of cGMP, 2 hr” value turned out to be 10.57 pmol/mL and the “Plasma concentration of cGMP, 6 hr” value stood at 8.48 pmol/mL.

These data come from patent US20240325544A1, “CATIONIC LIPID FOR COVALENT MODIFICATION OF PEPTIDES” (PharmalN Corporation, priority 2023, published 2024).
